Data reported in patent publication US20260085062A1, “NOVEL COMPOUNDS AS CK2 INHIBITORS” (Cambridge Enterprise Limited, priority 2022, published 2026).

Tests used:
[1] = target: T1, CK2α (Homo sapiens, UniProt P68400); experiment: Biochemical assay for inhibitors of CK2α kinase activity (ADP-Glo); settings: 0.2 nM CK2α, 50 μM peptide substrate, 15 μM ATP, read-out: Assay 1: CK2α Enzyme IC50
T1 construct: CK2α (residues 2-329) was produced in Escherichia coli BL21 (DE3) for kinase activity screening; His6 (N, cleaved yes); made in house; host or cells: Escherichia coli BL21 (DE3)
T1 sequence (P68400 2-329): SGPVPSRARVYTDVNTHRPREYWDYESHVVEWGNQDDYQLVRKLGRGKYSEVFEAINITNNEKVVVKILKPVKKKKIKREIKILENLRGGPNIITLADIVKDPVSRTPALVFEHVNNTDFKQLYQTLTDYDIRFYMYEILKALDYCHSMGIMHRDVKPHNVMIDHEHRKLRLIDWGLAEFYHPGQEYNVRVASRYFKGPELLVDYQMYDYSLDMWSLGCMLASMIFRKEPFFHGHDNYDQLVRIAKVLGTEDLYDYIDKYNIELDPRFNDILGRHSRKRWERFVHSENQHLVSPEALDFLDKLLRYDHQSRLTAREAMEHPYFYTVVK

[2] = target: T2, CLK2 (Homo sapiens, UniProt P49760); experiment: Biochemical assay for inhibitors of CLK2 kinase activity (ADP-Glo); settings: 20 nM CLK2, 50 μM peptide substrate, 100 μM ATP, read-out: Assay 2: CLK2 Enzyme IC50
T2 construct: purchased Carna Biosciences 04-127

[3] = target: T3, intracellular CK2α (Homo sapiens, UniProt P19784); experiment: Cell-based NanoBRET assay for inhibitor binding to intracellular CK2α; settings: HCT116 cells transiently transfected with CSNK2A2-NanoLuc fusion vector; Tracer K-5; 2 h; read-out: Assay 3: NanoBRET ™ assay for binding to intracellular CK2α
T3 construct: host or cells: HCT116 (ATCC CCL-247)
Summary of the method: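 Living cells expressing NanoLuc-CK2α fusion were given a fixed tracer concentration, and compounds competitively displaced the reversibly bound tracer. Donor (450 nm) and acceptor (610 or 630 nm) emissions were read; BRET ratio = (acceptor/donor)×1,000, giving apparent intracellular affinity.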

T3 sequence (P19784 whole entry, the tested form may be a part): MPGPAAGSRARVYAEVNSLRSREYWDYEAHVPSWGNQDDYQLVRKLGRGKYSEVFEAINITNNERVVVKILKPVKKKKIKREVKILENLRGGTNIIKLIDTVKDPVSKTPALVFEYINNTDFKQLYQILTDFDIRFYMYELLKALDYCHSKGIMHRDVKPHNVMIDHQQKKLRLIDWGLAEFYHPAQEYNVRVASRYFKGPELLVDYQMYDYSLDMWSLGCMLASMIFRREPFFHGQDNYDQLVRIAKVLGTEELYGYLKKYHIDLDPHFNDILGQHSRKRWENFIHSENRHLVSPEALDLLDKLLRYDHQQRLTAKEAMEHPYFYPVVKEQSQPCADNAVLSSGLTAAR
T2 sequence (P49760 whole entry): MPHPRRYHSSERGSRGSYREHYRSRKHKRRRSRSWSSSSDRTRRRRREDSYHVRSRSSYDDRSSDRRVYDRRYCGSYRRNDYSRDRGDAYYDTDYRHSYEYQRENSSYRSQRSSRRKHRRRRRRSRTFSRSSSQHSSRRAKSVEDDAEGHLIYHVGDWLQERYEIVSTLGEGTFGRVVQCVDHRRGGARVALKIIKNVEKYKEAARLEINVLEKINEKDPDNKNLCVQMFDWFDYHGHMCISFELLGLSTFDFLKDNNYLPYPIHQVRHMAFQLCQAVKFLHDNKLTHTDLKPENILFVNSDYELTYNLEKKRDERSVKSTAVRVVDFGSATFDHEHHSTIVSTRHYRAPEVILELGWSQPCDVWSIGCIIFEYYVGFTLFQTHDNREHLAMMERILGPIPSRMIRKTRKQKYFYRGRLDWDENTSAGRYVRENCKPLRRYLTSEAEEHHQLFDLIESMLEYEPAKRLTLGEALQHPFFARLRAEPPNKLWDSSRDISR

Row | Structure (SMILES) | IC50 [1] [µM] | IC50 [2] [µM] | IC50 [3] [µM]
1 | OCc1cc(F)cc(CNCCCCOC2CN(c3cc(-n4cnnc4)cc4[nH]ncc34)C2)c1 [Example 125, (3-(((4-((1-(6-(4H-1,2,4-triazol-4-yl)-1H-indazol-4-yl)azetidin-3-yl)oxy)butyl)amino)methyl)-5-fluorophenyl)methanol] | 0.162 | 0.152 | 49.2
2 | FC(F)(F)c1ccc2[nH]c(CNCCCCOCCNc3cc(-c4cnoc4)cc4[nH]ncc34)cc2c1 [Example 97, 6-(isoxazol-4-yl)-N-(2-(4-(((5-(trifluoromethyl)-1H-indol-2-yl)methyl)amino)butoxy)ethyl)-1H-indazol-4-amine] | 0.00142 | 0.104 | 0.321
3 | N#CCc1cc(F)cc(CNCCCCOC2CN(c3cc(-n4cnnc4)cc4[nH]ncc34)C2)c1 [Example 103, 2-(3-(((4-((1-(6-(4H-1,2,4-triazol-4-yl)-1H-indazol-4-yl)azetidin-3-yl)oxy)butyl)amino)methyl)-5-fluorophenyl)acetonitrile] | 0.0265 | 0.129 | 10.7
4 | Cn1c(CNCCCCOCCNc2cc(-n3cnnc3)cc3[nH]ncc23)cc2cc(C(F)(F)F)ccc21 [Example 51, N-(2-(4-(((1-methyl-5-(trifluoromethyl)-1H-indol-2-yl)methyl)amino)butoxy)ethyl)-6-(4H-1,2,4-triazol-4-yl)-1H-indazol-4-amine] | 0.00071 | 0.225 | 0.0721
5 | FC(F)(F)c1ccc2[nH]c(CNCCCCOCCNc3cc(-c4ccncn4)cc4[nH]ncc34)cc2c1 [Example 95, 6-(pyrimidin-4-yl)-N-(2-(4-(((5-(trifluoromethyl)-1H-indol-2-yl)methyl)amino)butoxy)ethyl)-1H-indazol-4-amine] | 0.00656 | 0.203 | 0.336
6 | N#CCc1cc(NCCOCCCCNCc2cc(CO)cc(OC(F)(F)F)c2)c2cn[nH]c2c1 [Example 204, 2-(4-((2-(4-((3-(hydroxymethyl)-5-(trifluoromethoxy)benzyl)amino)butoxy)ethyl)amino)-1H-indazol-6-yl)acetonitrile] | 0.0462 | 3.44 | 0.405
7 | OCc1cc(Cl)cc(CNCCCCOC2CN(c3cc(-c4ccnnc4)cc4[nH]ncc34)C2)c1 [Example 111, (3-chloro-5-(((4-((1-(6-(pyridazin-4-yl)-1H-indazol-4-yl)azetidin-3-yl)oxy)butyl)amino)methyl)phenyl)methanol] | 0.228 | 2.3 | 14.2
8 | N#Cc1cc(NCCOCCCCNCc2cc3cc(C(F)(F)F)ccc3[nH]2)c2cn[nH]c2c1 [Example 96, 4-((2-(4-(((5-(trifluoromethyl)-1H-indol-2-yl)methyl)amino)butoxy)ethyl)amino)-1H-indazole-6-carbonitrile] | 0.027 | 0.227 | 2
9 | c1cc2[nH]c(CNCCCCOCCNc3cc(-c4cnoc4)cc4[nH]ncc34)cc2cc1OC1CCC1 [Example 98, N-(2-(4-(((5-cyclobutoxy-1H-indol-2-yl)methyl)amino)butoxy)ethyl)-6-(isoxazol-4-yl)-1H-indazol-4-amine] | 0.00082 | 0.122 | 0.105
10 | Fc1cc(CNCCCCOC2CN(c3cc(-n4cnnc4)cc4[nH]ncc34)C2)ccc1OC(F)(F)F [Example 129, 4-((6-(6-(4H-1,2,4-triazol-4-yl)-1H-indazol-4-yl)azetidine-3-yl)oxy)-N-(3-fluoro-4-(trifluoromethoxy)benzyl)butan-1-amine] | 0.0235 | 0.494 | > 50
11 | OCc1cc(CNC2CC(COCCNc3cc(-c4cnns4)cc4[nH]ncc34)C2)cc(OC(F)(F)F)c1 (stereo not drawn) [Example 203, (3-(((3-((2-((6-(1,2,3-thiadiazol-5-yl)-1H-indazol-4-yl)amino)ethoxy)methyl)cyclobutyl)amino)methyl)-5-(trifluoromethoxy)phenyl)methanol] | 0.0361 | 0.307 | 0.546

Results, then the compound that gave them:

Row | IC50 [1] [µM] | IC50 [2] [µM] | IC50 [3] [µM] | Structure (SMILES)
12 | 0.00193 | 0.0643 | 0.703 | Cc1[nH]ncc1-c1cc(NCCCNC(=O)CCNCc2ccc(OC(F)(F)F)c(Cl)c2)c2cn[nH]c2c1 [Example 159, 3-((3-chloro-4-(trifluoromethoxy)benzyl)amino)-N-(3-((6-(5-methyl-1H-pyrazol-4-yl)-1H-indazol-4-yl)amino)propyl)propanamide]
13 | 0.00906 | 1.65 | 0.828 | O=C(CCNCc1ccc(OC(F)(F)F)c(Cl)c1)NCCCNc1cc(-c2nnco2)cc2[nH]ncc12 [Example 157, N-(3-((6-(1,3,4-oxadiazol-2-yl)-1H-indazol-4-yl)amino)propyl)-3-((3-chloro-4-(trifluoromethoxy)benzyl)amino)propanamide]
14 | 0.00095 | 0.123 | 6.38 | N#Cc1cc(CNCCC(=O)NCCCNc2cc(-n3cnnc3)cc3[nH]ncc23)ccc1C1CC1 [Example 45, N-(3-((6-(4H-1,2,4-triazol-4-yl)-1H-indazol-4-yl)amino)propyl)-3-((3-cyano-4-cyclopropylbenzyl)amino)propanamide]
15 | 0.0204 | 4.46 | 0.875 | O=C(CCNCc1ccc(-c2ccccc2)c(Cl)c1)NCCCNc1cc(-c2cccnc2)cc2[nH]ncc12 [Example 26, 3-(((2-chloro-[1,1'-biphenyl]-4-yl)methyl)amino)-N-(3-((6-(pyridin-3-yl)-1H-indazol-4-yl)amino)propyl)propanamide]
16 | 0.163 | 4.16 | > 50 | O=C(Cc1nnc(CCNCc2ccc(OC(F)(F)F)c(Cl)c2)[nH]1)Nc1cc(-n2cnnc2)cc2[nH]ncc12 [Example 65, N-(6-(4H-1,2,4-triazol-4-yl)-1H-indazol-4-yl)-2-(5-(2-((3-chloro-4-_(trifluoromethoxy)benzyl)amino)ethyl)-4H-1,2,4-triazol-3-yl)acetamide]
17 | 0.472 | > 50 | > 50 | O=C(CCNCc1ccc(-c2ccccc2)c(Cl)c1)NCCCNc1cc(N2CCOCC2)cc2[nH]ncc12 [Example 78, 3-(((2-chloro-[1,1′-biphenyl]-4-yl)methyl)amino)-N-(3-((6-morpholino-1H-indazol-4-yl)amino)propyl)propanamide]
18 | 0.00143 | 0.0517 | 3.89 | O=C(CCNCc1cccc(Cl)c1)NCCCNc1cc(-n2cnnc2)cc2[nH]ncc12 [Example 13, N-(3-((6-(4H-1,2,4-triazol-4-yl)-1H-indazol-4-yl)amino)propyl)-3-((3-chlorobenzyl)amino)propanamide]
19 | 0.00298 | 0.242 | 0.135 | O=C(CCNCc1ccc(OC(F)(F)F)c(Cl)c1)NCCCNc1cc(-c2cnco2)cc2[nH]ncc12 [Example 164, 3-((3-chloro-4-(trifluoromethoxy)benzyl)amino)-N-(3-((6-(oxazol-5-yl)-1H-indazol-4-yl)amino)propyl)propanamide]
20 | 0.00862 | 4.68 | 0.949 | N#Cc1cc(-c2cc(NCCCNC(=O)CCNCc3ccc(OC(F)(F)F)c(Cl)c3)c3cn[nH]c3c2)cnn1 [Example 187, 3-((3-chloro-4-(trifluoromethoxy)benzyl)amino)-N-(3-((6-(6-cyanopyridazin-4-yl)-1H-indazol-4-yl)amino)propyl)propanamide]
21 | 0.00826 | 2.78 | 3.84 | O=C(CNCCCCNCc1ccc(OC(F)(F)F)c(Cl)c1)Nc1cc(-n2cnnc2)cc2[nH]ncc12 [Example 17, N-(6-(4H-1,2,4-triazol-4-yl)-1H-indazol-4-yl)-2-((4-((3-chloro-4-(trifluoromethoxy)benzyl)amino)butyl)amino)acetamide]
22 | 0.00135 | 1.12 | 0.363 | COc1cc(-c2cc(NCCCNC(=O)CCNCc3ccc(-c4ccccc4)c(Cl)c3)c3cn[nH]c3c2)ccn1 [Example 22, 3-(((2-Chloro-[1,1′-biphenyl]-4-yl)methyl)amino)-N-(3-((6-(2-methoxypyridin-4-yl)-1H-indazol-4-yl)amino)propyl)propanamide]
23 | 0.00077 | 0.0334 | 0.135 | O=C(CCNCc1ccc(-c2ccccc2)c(Cl)c1)NCCCNc1cc(-c2cn[nH]c2)cc2[nH]ncc12 [Example 3, N-(3-((6-(1H-pyrazol-4-yl)-1H-indazol-4-yl)amino)propyl)-3-(((2-chloro-[1,1′-biphenyl]-4-yl)methyl)amino)propanamide]
24 | 0.00117 | 3.17 | 0.361 | O=C(CCNCc1ccc(OC(F)(F)F)c(Cl)c1)NCCCNc1cc(-c2ncno2)cc2[nH]ncc12 [Example 173, N-(3-((6-(1,2,4-oxadiazol-5-yl)-1H-indazol-4-yl)amino)propyl)-3-((3-chloro-4-(trifluoromethoxy)benzyl)amino)propanamide]
